Experiment: CuAAC: 1,7-diethynyl PDI 8 + bis-azide, [1+1] macrocyclisation; Cu(MeCN)4PF6 0.4 eq with TBTA 0.4 eq (THPTA for 2a), N2, rt
Details: the molecule shown is the open-chain precursor, CH2Cl2, 0.22 mM, 25.0 °C

`C#Cc1cc2c3c(ccc4c5c(-c6cn(CCCCOc7ccc(OCCCCN=[N+]=[N-])cc7)nn6)cc6c7c(ccc(c1c34)c75)C(=O)N(c1c(C(C)C)cccc1C(C)C)C6=O)C(=O)N(c1c(C(C)C)cccc1C(C)C)C2=O` [1a (hydroquinone, n=4)] gave a ring closure, isolated yield (26-membered ring, 96.0 h) of 24%.

Molecule `C#Cc1cc2c3c(ccc4c5c(-c6cn(CCCCCCOc7ccc(OCCCCCCN=[N+]=[N-])cc7)nn6)cc6c7c(ccc(c1c34)c75)C(=O)N(c1c(C(C)C)cccc1C(C)C)C6=O)C(=O)N(c1c(C(C)C)cccc1C(C)C)C2=O` [1b (hydroquinone, n=6)] has a ring closure, isolated yield (30-membered ring, 96.0 h) of 23%.

In the case of `C#Cc1cc2c3c(ccc4c5c(-c6cn(CCCCCCCCOc7ccc8ccccc8c7-c7c(OCCCCCCCCN=[N+]=[N-])ccc8ccccc78)nn6)cc6c7c(ccc(c1c34)c75)C(=O)N(c1c(C(C)C)cccc1C(C)C)C6=O)C(=O)N(c1c(C(C)C)cccc1C(C)C)C2=O`, the ring closure, isolated yield (34-membered ring, 96.0 h) is reported as 33%.

For `C#Cc1cc2c3c(ccc4c5c(-c6cn(CCCCCCOc7ccc8ccccc8c7-c7c(OCCCCCCN=[N+]=[N-])ccc8ccccc78)nn6)cc6c7c(ccc(c1c34)c75)C(=O)N(c1c(C(C)C)cccc1C(C)C)C6=O)C(=O)N(c1c(C(C)C)cccc1C(C)C)C2=O`, the ring closure, isolated yield (30-membered ring, 96.0 h) was 53%.

With `C#Cc1cc2c3c(ccc4c5c(-c6cn(CCCCOc7ccc8ccccc8c7-c7c(OCCCCN=[N+]=[N-])ccc8ccccc78)nn6)cc6c7c(ccc(c1c34)c75)C(=O)N(c1c(C(C)C)cccc1C(C)C)C6=O)C(=O)N(c1c(C(C)C)cccc1C(C)C)C2=O` [2a (P-BINOL, n=4; PM 2% + PP 2%, dr 1:1)] the ring closure, isolated yield (26-membered ring, 144.0 h) was 4%.
